Where two headings read alike, the source gives them in different places.

IC50 data for 21 molecules are collected here from patent publication US9701680B2, “Pyrimidine and pyridine compounds and their usage” (HUTCHISON MEDIPHARMA LIMITED, priority 2013, dated 2017).

In assay [1] the target is Recombinant human FGFR1 (Homo sapiens, UniProt P11362). In words: Transcreener Kinase Assay of FGFR1. In kind it is biochemical. A digest of the protocol: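 Recombinant human FGFR1 was reacted with Poly E4Y substrate and ATP for 45 min at 28 °C, with compounds at 1 to 0.0005 µM in 1% DMSO final. Inhibition is relative to the DMSO control, with IC50 from a curve fit.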
Assay [2] addresses Recombinant human FGFR2 (Homo sapiens, UniProt P21802). As to the kind of experiment: Transcreener Kinase Assay of FGFR2. In kind it is biochemical.
Assay [3] addresses FGFR3 kinase (Homo sapiens, UniProt P22607). In words: Z-Lyte Kinase Assay of FGFR3. In kind it is biochemical. A digest of the protocol:
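Z-LYTE FRET assay, kinase 0.7 μg/ml with Tyr 4 peptide 4 μM (P/K solution), ATP diluted to 300 uM in 1.33× buffer; compound final 1 to 0.00046 μM, 2% DMSO.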

Assay [4] has as its system KG-1. In words: Cellular Proliferation Assay (Cell Counting Kit-8), KG-1. In kind it is cell-based. The conditions noted are these: Homo sapiens; KG-1 cells, 72 hours; read-out: KG1 IC50. A digest of the protocol: (§1)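 Seeding per well: KG-1 30000, SNU-16 5000, RT-112 1000 cells. After 24 h an 8-point series (working dilutions 10 to 0.004 μM in 5% DMSO) was added for 72 h at 37 °C, 5% CO2. CCK-8 OD450 after 1 h, corrected for media background and normalised to untreated cells, gave IC50.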
In general terms: Tetrazolium assays rely on reduction of a dye to a coloured formazan, in cell work by metabolically active cells.

Assay [5] relates to SNU-16. In words: Cellular Proliferation Assay (Cell Counting Kit-8), SNU-16. In kind it is cell-based. To be noted: Homo sapiens; SNU-16 cells, 72 hours. The method in brief:
as §1

Assay [6] deals with RT-112. As to the kind of experiment: Cellular Proliferation Assay (Cell Counting Kit-8), RT-112. In kind it is cell-based. The conditions noted are these: Homo sapiens; RT-112 cells, 72 hours. A digest of the protocol: as §1

Sequence of FGFR3 kinase (P22607 23-806): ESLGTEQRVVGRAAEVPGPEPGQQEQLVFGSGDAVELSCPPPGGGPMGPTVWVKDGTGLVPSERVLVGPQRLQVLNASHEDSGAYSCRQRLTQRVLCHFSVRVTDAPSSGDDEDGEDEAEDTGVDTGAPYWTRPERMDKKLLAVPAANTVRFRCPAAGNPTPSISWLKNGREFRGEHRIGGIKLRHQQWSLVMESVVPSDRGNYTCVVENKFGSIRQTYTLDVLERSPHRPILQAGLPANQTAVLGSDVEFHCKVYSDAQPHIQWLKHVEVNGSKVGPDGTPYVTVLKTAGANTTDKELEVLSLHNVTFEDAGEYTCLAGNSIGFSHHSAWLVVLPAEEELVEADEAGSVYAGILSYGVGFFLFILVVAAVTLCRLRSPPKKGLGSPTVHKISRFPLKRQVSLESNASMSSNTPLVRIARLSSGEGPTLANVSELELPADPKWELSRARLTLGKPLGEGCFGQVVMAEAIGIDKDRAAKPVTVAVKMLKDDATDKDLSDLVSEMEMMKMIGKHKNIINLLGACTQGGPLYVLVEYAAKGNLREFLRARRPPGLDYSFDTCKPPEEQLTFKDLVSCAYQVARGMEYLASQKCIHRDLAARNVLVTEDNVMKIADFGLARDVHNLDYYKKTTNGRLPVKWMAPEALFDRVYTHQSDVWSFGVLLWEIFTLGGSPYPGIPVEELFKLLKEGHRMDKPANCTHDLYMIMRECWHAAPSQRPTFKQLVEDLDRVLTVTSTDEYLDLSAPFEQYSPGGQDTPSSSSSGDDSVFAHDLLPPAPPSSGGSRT
Sequence of Recombinant human FGFR1 (P11362 22-822): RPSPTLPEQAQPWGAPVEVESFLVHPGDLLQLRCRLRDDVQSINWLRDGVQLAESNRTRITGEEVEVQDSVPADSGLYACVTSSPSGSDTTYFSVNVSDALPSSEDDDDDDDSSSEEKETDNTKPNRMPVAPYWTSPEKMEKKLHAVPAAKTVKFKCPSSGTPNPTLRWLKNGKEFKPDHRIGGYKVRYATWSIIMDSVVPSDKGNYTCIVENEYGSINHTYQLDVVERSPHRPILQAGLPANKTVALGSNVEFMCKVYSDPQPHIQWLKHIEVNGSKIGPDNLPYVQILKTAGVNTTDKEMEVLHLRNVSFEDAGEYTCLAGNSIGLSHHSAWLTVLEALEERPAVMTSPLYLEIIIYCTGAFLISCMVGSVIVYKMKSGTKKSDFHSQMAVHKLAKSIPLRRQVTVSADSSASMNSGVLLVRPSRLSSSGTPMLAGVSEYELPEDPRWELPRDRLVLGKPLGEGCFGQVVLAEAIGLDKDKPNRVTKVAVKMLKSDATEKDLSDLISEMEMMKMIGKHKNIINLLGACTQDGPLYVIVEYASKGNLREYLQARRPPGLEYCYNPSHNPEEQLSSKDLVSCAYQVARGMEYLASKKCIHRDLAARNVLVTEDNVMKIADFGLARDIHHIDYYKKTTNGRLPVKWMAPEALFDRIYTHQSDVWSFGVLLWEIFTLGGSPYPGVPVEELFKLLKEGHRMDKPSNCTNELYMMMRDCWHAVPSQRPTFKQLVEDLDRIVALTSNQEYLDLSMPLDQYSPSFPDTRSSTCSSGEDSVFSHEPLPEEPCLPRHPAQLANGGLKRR
Sequence of Recombinant human FGFR2 (P21802 22-821): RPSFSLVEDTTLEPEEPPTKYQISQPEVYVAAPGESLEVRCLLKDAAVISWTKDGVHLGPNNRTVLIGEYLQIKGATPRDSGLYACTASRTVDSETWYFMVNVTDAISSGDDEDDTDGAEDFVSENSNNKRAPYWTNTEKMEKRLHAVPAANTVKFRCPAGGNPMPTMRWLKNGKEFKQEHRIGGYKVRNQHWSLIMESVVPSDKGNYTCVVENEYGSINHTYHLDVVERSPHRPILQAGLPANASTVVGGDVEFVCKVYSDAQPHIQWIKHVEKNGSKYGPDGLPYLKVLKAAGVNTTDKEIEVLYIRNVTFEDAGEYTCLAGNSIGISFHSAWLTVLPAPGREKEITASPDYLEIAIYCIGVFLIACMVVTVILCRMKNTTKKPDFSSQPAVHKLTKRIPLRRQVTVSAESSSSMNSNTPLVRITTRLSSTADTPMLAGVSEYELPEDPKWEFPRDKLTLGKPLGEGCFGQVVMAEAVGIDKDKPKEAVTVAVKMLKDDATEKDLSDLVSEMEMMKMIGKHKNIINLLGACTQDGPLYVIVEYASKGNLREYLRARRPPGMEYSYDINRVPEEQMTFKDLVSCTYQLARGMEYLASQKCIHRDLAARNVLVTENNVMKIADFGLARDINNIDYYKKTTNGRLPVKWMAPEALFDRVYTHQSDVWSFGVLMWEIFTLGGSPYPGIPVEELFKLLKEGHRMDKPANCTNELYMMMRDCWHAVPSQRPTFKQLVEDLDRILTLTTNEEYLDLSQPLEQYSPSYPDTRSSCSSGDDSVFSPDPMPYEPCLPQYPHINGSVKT

As to `C#Cc1ccc(Nc2ncc(OCc3cc(C(=O)NC)cc(OC)c3F)cn2)cn1` [Compound 211], the IC50 in assay [1] (read-out: FGFR1 (FP) IC50) worked out at 40 nM; in assay [2] (read-out: FGFR2 (FP) IC50) it was 16 nM; in assay [3], 42 nM; in assay [4] it was 103 nM; in assay [5] it was 155 nM; in assay [6], 78 nM.
For the molecule `CCN1CCC(c2ccc(Nc3ncc(OCc4cc(C(=O)NC)cc(OC)c4F)cn3)cn2)CC1` [Compound 256], the IC50 in assay [1] (read-out: FGFR1 (FP) IC50) came to 100 nM; in assay [2] (read-out: FGFR2 (FP) IC50), 40 nM; in assay [3] it was 39 nM; in assay [4], 202 nM; in assay [5] it was 22 nM; in assay [6], 57 nM.
`CNC(=O)c1cc(COc2cnc(Nc3ccc(N4C[C@@H](C)N[C@@H](C)C4)c(OC)c3)nc2)c(F)c(OC)c1` [Compound 282]: the IC50 in assay [1] (FP) stood at 18 nM; in assay [2] (FP), 9 nM; in assay [3] (Z-lyte) it was 7 nM; in assay [4], 46 nM; in assay [5], 5 nM; in assay [6], 5 nM.
In the case of `CCN(CC)CCn1cc(Nc2ncc(OCc3c(F)c(OC)cc(C(=O)NC)c3F)cn2)cn1` [Compound 251], the IC50 is 25 nM in assay [1] (read-out: FGFR1 (FP) IC50); 23 nM in assay [2] (read-out: FGFR2 (FP) IC50); 24 nM in assay [3]; 31 nM in assay [4]; 41 nM in assay [5]; 87 nM in assay [6].
Consider `CCN(CC)CCNC(C)c1ccc(Nc2ncc(OCc3cc(C(=O)NC)cc(OC)c3Cl)cn2)cc1` (stereo not drawn) [Compound 295], for which the IC50 in assay [1] (FP) was determined as 13 nM; in assay [2] (FP), 13 nM; in assay [3] (Z-lyte), 19 nM; in assay [4], 40 nM; in assay [5], 104 nM; in assay [6] it was 337 nM.
As for `CNC(=O)c1cc(COc2cnc(Nc3ccc([C@@H]4CCCNC4)nc3)nc2)c(Cl)c(OC)c1` [Compound 244], the IC50 in assay [1] (read-out: FGFR1 (FP) IC50) turned out to be 10 nM; in assay [2] (read-out: FGFR2 (FP) IC50), 10 nM; in assay [3], 13 nM; in assay [4], 362 nM; in assay [5], 115 nM; in assay [6] it was 585 nM.
Regarding `CCN1CCC(c2ccc(Nc3ncc(OCc4cc(C(=O)NC)cc(OC)c4F)cn3)cc2)CC1` [Compound 252], the IC50 was 21 nM in assay [1] (read-out: FGFR1 (FP) IC50); 22 nM in assay [2] (read-out: FGFR2 (FP) IC50); 16 nM in assay [3]; 28 nM in assay [4]; 8 nM in assay [5]; 6 nM in assay [6].
Consider `CNC(=O)c1cc(CCc2cnc(Nc3ccc(N4CCN(C)CC4)c(OC)c3)nc2)c(F)c(OC)c1` [Compound 172], for which the IC50 in assay [1] (read-out: FGFR1 (FP) IC50) came to 7 nM; in assay [2] (read-out: FGFR2 (FP) IC50), 6 nM; in assay [3], 6 nM; in assay [4], 13 nM; in assay [5] it was 4 nM; in assay [6], 12 nM.
As to `C#Cc1cccc(Nc2ncc(OCc3cc(C(=O)NC)cc(OC)c3F)cn2)c1` [Compound 210], the IC50 in assay [1] (read-out: FGFR1 (FP) IC50) amounted to 24 nM; in assay [2] (read-out: FGFR2 (FP) IC50), 13 nM; in assay [3], 177 nM; in assay [4], 166 nM; in assay [5], 115 nM; in assay [6] it was 305 nM.
`CNC(=O)c1cc(CCc2cnc(Nc3ccc(C(C)(C)C#N)nc3)nc2)c(F)c(OC)c1` [Compound 142]: the IC50 in assay [1] (read-out: FGFR1 (FP) IC50) came to 31 nM; in assay [2] (read-out: FGFR2 (FP) IC50), 12 nM; in assay [3] it was 49 nM; in assay [4], 64 nM; in assay [5], 43 nM; in assay [6], 127 nM.
With `CNC(=O)c1cc(COc2cnc(Nc3ccc(C4CCNCC4)cc3)nc2)c(F)c(OC)c1` [Compound 231], the IC50 in assay [1] (read-out: FGFR1 (FP) IC50) amounted to 16 nM; in assay [2] (read-out: FGFR2 (FP) IC50), 16 nM; in assay [3], 11 nM; in assay [4] it was 58 nM; in assay [5], 8 nM; in assay [6] it was 9 nM.
Regarding `CNC(=O)c1cc(COc2cnc(Nc3cnn(C[C@@H]4COC(C)(C)O4)c3)nc2)c(F)c(OC)c1` [Compound 248], the IC50 in assay [1] (read-out: FGFR1 (FP) IC50) was found to be 16 nM; in assay [2] (read-out: FGFR2 (FP) IC50), 11 nM; in assay [3], 14 nM; in assay [4] it was 6 nM; in assay [5], 9 nM; in assay [6], 21 nM.
Regarding `CNC(=O)c1cc(CCc2cnc(Nc3ccc(N)cc3)nc2)c(Cl)c(OC)c1` [Compound 80], the IC50 was 10 nM in assay [1] (read-out: FGFR1 (FP) IC50); 11 nM in assay [2] (read-out: FGFR2 (FP) IC50); 13 nM in assay [3]; 13 nM in assay [4]; 18 nM in assay [5]; 44 nM in assay [6].
On to `CCN1CCC(c2ccc(Nc3ncc(OCc4cc(C(=O)NC)cc(OC)c4F)cn3)cc2OC)CC1` [Compound 280], for which the IC50 stood at 27 nM in assay [1] (FP); 18 nM in assay [2] (FP); 16 nM in assay [3] (Z-lyte); 191 nM in assay [4]; 7 nM in assay [5]; 29 nM in assay [6].
`CNC(=O)c1cc(COc2cnc(Nc3ccc(N4CCN(C)CC4)nc3)nc2)c(Cl)c(OC)c1` [Compound 263]: the IC50 in assay [1] (read-out: FGFR1 (FP) IC50) is 5 nM; in assay [2] (read-out: FGFR2 (FP) IC50) it was 5 nM; in assay [3] it was 6 nM; in assay [4], 7 nM; in assay [5] it was 14 nM; in assay [6] it was 28 nM.
With `CNC(=O)c1cc(OC)c(Cl)c(COc2cnc(Nc3ccc(N4C[C@@H](C)N[C@@H](C)C4)cc3)nc2)c1F` [Compound 290], the IC50 in assay [1] (FP) worked out at 10 nM; in assay [2] (FP), 7 nM; in assay [3] (Z-lyte), 11 nM; in assay [4], 6 nM; in assay [5], 11 nM; in assay [6] it was 12 nM.
For the molecule `CNC(=O)c1cc(COc2cnc(Nc3cnn(C[C@H]4COC(C)(C)O4)c3)nc2)c(F)c(OC)c1` [Compound 249], the IC50 in assay [1] (read-out: FGFR1 (FP) IC50) is 38 nM; in assay [2] (read-out: FGFR2 (FP) IC50), 14 nM; in assay [3], 15 nM; in assay [4], 27 nM; in assay [5], 10 nM; in assay [6] it was 30 nM.
For `CNC(=O)c1cc(COc2cnc(Nc3ccc(N4CCOCC4)nc3)nc2)c(Cl)c(OC)c1` [Compound 247], the IC50 in assay [1] (read-out: FGFR1 (FP) IC50) is 34 nM; in assay [2] (read-out: FGFR2 (FP) IC50), 16 nM; in assay [3], 23 nM; in assay [4] it was 42 nM; in assay [5], 28 nM; in assay [6], 57 nM.
Regarding `CCN1CCN(c2ccc(Nc3ncc(OCc4cc(C(=O)NC)cc(OC)c4Cl)cn3)cn2)CC1` [Compound 272], the IC50 in assay [1] (read-out: FGFR1 (FP) IC50) turned out to be 10 nM; in assay [2] (read-out: FGFR2 (FP) IC50), 9 nM; in assay [3], 8 nM; in assay [4], 18 nM; in assay [5], 15 nM; in assay [6], 31 nM.
As for `CCCN1CC(c2ccc(Nc3ncc(OCc4cc(C(=O)NC)cc(OC)c4F)cn3)cc2)C1` [Compound 240], the IC50 in assay [1] (read-out: FGFR1 (FP) IC50) stood at 34 nM; in assay [2] (read-out: FGFR2 (FP) IC50), 23 nM; in assay [3], 23 nM; in assay [4], 23 nM; in assay [5] it was 39 nM; in assay [6], 56 nM.
As for `CNC(=O)c1cc(COc2cnc(Nc3ccc(CCN(C)C)cc3)nc2)c(F)c(OC)c1` [Compound 225], the IC50 worked out at 26 nM in assay [1] (read-out: FGFR1 (FP) IC50); 15 nM in assay [2] (read-out: FGFR2 (FP) IC50); 11 nM in assay [3]; 7 nM in assay [4]; 14 nM in assay [5]; 21 nM in assay [6].

Usually IC50 stands for the concentration that inhibits the measured activity by half.
